From patent US12697330B2, “Therapeutic methods using vadadustat” (Akebia Therapeutics, Inc., priority 2021, dated 2026) come the findings set out here.

Common to all, as to format: in vivo, human
Data set [1] is described as follows: Phase 1b study: pharmacokinetics of vadadustat and its metabolites in plasma of hemodialysis subjects with anemia associated with CKD. As for the experimental part: The primary objective of the study was to assess the pharmacokinetics (PK) of vadadustat 600, 750, and 900 mg daily, and IV ESA (darbepoetin alfa or epoetin alfa) in hemodialysis subjects with anemia associated with CKD. Additional objectives included to evaluate the pharmacodynamics (PD) of vadadustat 600, 750, and 900 mg daily, and IV ESA (darbepoetin alfa or epoetin alfa) in hemodialysis subjects with anemia associated with CKD and to assess the safety and tolerability of vadadustat 600, 750, and 900 mg daily and IV ESA (darbepoetin alfa or epoetin alfa) in hemodialysis subjects with anemia associated with CKD.
Study Design. This was a Phase 1b, randomized, open-label study to evaluate the PK, PD, safety, and tolerability of vadadustat 600, 750, or 900 mg daily, or ESA (darbepoetin alfa or epoetin alfa) in hemodialysis subjects with anemia associated with CKD. The study included a 28-day Screening and Randomization period, a 10-day Treatment Period, and a 30-day Safety Follow up Period after the last dose of study drug (vadadustat or ESA). For subjects randomized to vadadustat, study duration also included an ESA washout period of a minimum of 5 days for epoetin alfa or 9 days for darbepoetin alfa or 9-day ESA Washout period prior to dosing on Day 1.
A total of 46 subjects were enrolled in the study. Written informed consent were obtained before any screening procedures were performed. Subjects were screened within 28 days prior to randomization. Eligible subjects were randomized in a 2:2:2:1 ratio to 1 of 4 treatment groups (600, 750, or 900 mg vadadustat QD, or ESA. Randomized subjects began their 10-day Treatment Period within 36 days of initiating screening.
Eligible subjects were randomly assigned in a 2:2:2:1 ratio to 1 of 4 treatment groups: Group 1—vadadustat 600 mg once daily (QD); Group 2—vadadustat 750 mg QD; Group 3—vadadustat 900 QD; and Group 4—IV ESA. Randomization was stratified by the mean weekly ESA dose calculated over a period of 8 weeks prior to the randomization visit. For darbepoetin, the groups were divided into low dose darbepoetin alfa group (<0.5 μg/kg/week) and high dose darbepoetin alfa group (>0.5 to <1.5 μg/kg/week). For epoetin, the groups were divided into low dose epoetin alfa group (≤90 U/kg/week) and high dose epoetin alfa group (>90 to <300 U/kg/week).
Subjects began dosing on Day 1 and took vadadustat at approximately the same time each day for a total of 10 days. On Day 1 and Day 8, subjects took vadadustat after all predose procedures are completed and within 30 minutes prior to the start of dialysis so that the 1-hour post dose blood sample for PK and PD was collected during dialysis. Vadadustat could be taken with or without food. Subjects were instructed to make every effort to take the drug consistently, either with or without food. Subjects were instructed to swallow the tablets whole with water.
PK and EPO Sample. For each vadadustat treatment group, blood samples for vadadustat PK (and its metabolites) and EPO were collected at the following time points: Day 1: predose, and at 1, 2, 3, 4, 5, 8, and 11 hours post dose; Day 2: 24 hours (−2 hours) post Day 1 dose; Day 6: blood sample for EPO analysis only was collected predose on Day 6; Day 8: predose, and at 1, 2, 3, 4, 5, 8, 11 hours post dose, Day 10 or EOT: predose. For the ESA treatment group, blood samples for analysis of EPO were collected at the following time points: Day 1: predose, and at 0.25, 1, 2, 3, 4, 5, 8, and 11 hours post dose; Day 2: 24 hours (−2 hours) post Day 1 dose.
Primary Endpoints. […]

Data set [2] is described as follows: Phase 2 study, Main Study: pharmacokinetics (vadadustat and vadadustat-O-glucuronide concentration). The settings on record: Week 1, Week 1+1 day, and Week 11. As for the experimental part:
PK/PD Endpoints. An exposure-response analysis of vadadustat and PD measures were conducted as deemed appropriate. The PK parameters included (but were not limited to) the following: area under concentration-time curve from dosing to last measurable concentration (AUClast), area under concentration-time curve from dosing to infinity (AUCinf), Cmax, apparent total body clearance (CL/F), apparent volume of distribution (Vd/F), and terminal half-life (t1/2). The PD parameters included (but were not limited to) the following: EPO, reticulocytes, iron, ferritin, TIBC, and hepcidin.
PK population: included all randomized subjects who received study drug (vadadustat or epoetin alfa) and had enough drug concentrations to estimate AUC and Cmax. Analysis of this population was based on the dose amount taken at the date of PK sampling for the vadadustat group.

The subject of another data set is healthy adults. Nature of the data set: Drug interaction study with co-administration of vadadustat in healthy adults. The settings on record: healthy adults; extent of increase. An excerpt:
Sulfasalazine. Other Breast Cancer Resistance Protein Substrates. and Probenecid. Exposures to sulfasalazine (moderately) and mesalamine (mildly) were increased with co-administration of vadadustat based on a study in healthy adults. In subjects taking vadadustat, sulfasalazine and other clinically relevant substrates of the breast cancer resistance protein (BCRP) transporter (e.g., sulfasalazine, methotrexate, mitoxantrone, imatinib, irinotecan, lapatinib, topotecan, tenofovir, glecaprevir, pibrentasvir, or sofosbuvir), caution should be taken during the study. Probenecid, an inhibitor of UDP-glucuronosyltransferase (UGT) and the organic anion transporter (OAT)1/3 transporters, increased vadadustat area under the curve and is prohibited during the study.

For the molecule `O=C(O)CNC(=O)c1ncc(-c2cccc(Cl)c2)cc1O[C@@H]1O[C@H](C(=O)O)[C@@H](O)[C@H](O)[C@H]1O` [vadadustat-O-glucuronide], in data set [1] (Day 8), the “metabolite exposure versus dose” value was “increased in a dose-dependent manner”. Besides, the accumulation versus dose result in data set [1] (most pronounced in the 900 mg vadadustat treatment group) is on record as “dose-dependent increase in accumulation”. The “mean concentration versus time profiles, dose dependency” value in data set [2] is reported as “concentrations increased with dose levels”.
Take `O=C(O)c1cc(/N=N/c2ccc(S(=O)(=O)Nc3ccccn3)cc2)ccc1O` [sulfasalazine]: the “Exposures increased with co-administration of vadadustat” value with healthy adults was “moderately”.
The same measure, in the same setting: the result for `Nc1ccc(O)c(C(=O)O)c1` [mesalamine] reads “mildly”.
